By HC50 is commonly meant the concentration giving 50% haemolysis. Low readings indicate stronger haemolysis, high ones weaker haemolysis.

This is an account of results in article PMC10460844, “Real‐Time Monitoring of Multitarget Antimicrobial Mechanisms of Peptoids Using Label‐Free Imaging with Optical Diffraction Tomography” (Advanced Science, 2023).

In brackets after ≈: the same amount, converted by molar mass. Read-outs that look alike come from different tables or passages of the source. A value given as a limit tells only on which side of the number the result lay.

One series concerns human cells and animals. To be noted: cited from earlier work.
Series [1] can be described thus: Analytical reversed-phase HPLC elution (hydrophobicity). It is filed as physicochemical. The settings on record: analytical RP-HPLC, 1 mL/min, UV 220 nm; for HPLC elution: Table S1, SunFire C18, water/ACN + 0.1% TFA, 5 to 100% B linear over 30 min, approximate comparison of hydrophobicity. In short, it runs like this:
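Analytical reversed-phase HPLC on a C18 column (4.6 × 250 mm, 5 μm) at 1 mL/min, water/acetonitrile each with 0.1% TFA. Held at 5% B for 2 min, then linear to 100% B over 30 min and held 5 min, with UV detection at 220 nm; retention time (tR) serves as hydrophobicity measure.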

In a further series the test system is rat erythrocytes. The experiment in a line: Hemolysis assay. It is filed as cell-based. The essentials: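 Washed Sprague-Dawley rat erythrocytes (10% suspension in PBS pH 7.4) mixed with peptoids (0–100 µM), 60 min at 37 °C; supernatant A540 expressed as % of 1% Triton X-100 lysis. HC10/HC50 are concentrations giving 10%/50% hemolysis; Hmax is hemolysis at 100 µM.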

For series [2] the following is noted: remark linked to increased retention time of N4hb peptoids.
The test system of series [3] is E. coli ATCC 25922. The series is classed as cell-based, Escherichia coli. The settings on record: mean of triplicate. The essentials:
(§1)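 Broth microdilution in cation-adjusted MHB2 containing 0.001% acetic acid and 0.02% BSA, inoculum ≈2–5 × 10^5 CFU mL^−1 from a 3–4 h secondary culture. Peptoids tested at six two-fold dilutions from 25 µM, in triplicate. MIC taken as the lowest concentration preventing visible turbidity.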

In another series the test system is S. aureus ATCC 25923. The series is classed as cell-based, Staphylococcus aureus. To be noted: mean of triplicate. In short, it runs like this:
as §1

The subject of another series is E. faecalis KCTC 3511. It is filed as cell-based. To be noted: KCTC 3511.
The next series relates to S. typhimurium SL 1344. The series is classed as cell-based. The settings on record: SL 1344.
The next series has as its system P. aeruginosa MDR-198. It is filed as cell-based.
The test system of a further series is E. coli ESBL 63103. It is filed as cell-based.
The next series deals with K. pneumonia ESBL 61962. It is filed as cell-based.
Another series deals with S. aureus MRSA C623. It is filed as cell-based.
For series [4], the system named is E. coli ATCC 25922. Put plainly: NPN uptake assay (outer membrane). It is filed as cell-based. The settings on record: E. coli ATCC 25922, 5 mM HEPES pH 7.2, 10 µM NPN, fluorescence. The procedure:
14. In vitro biological assays […]
The ability of peptoids to increase the permeability of the outer membrane of Gram-negative bacteria was determined by measuring the incorporation of the NPN fluorescent dye into the outer membrane of E. coli ATCC 25922. Bacterial cells were suspended to a final concentration of OD600 = 0.05 in 5 mM HEPES buffer, pH 7.2, containing 5 mM KCN. Then […]
200 μL NPN dye was added to wells of a 96 well plate to produce a final concentration of 10 μM, and the background fluorescence was recorded (λex = 350 nm, λem = 420 nm). Aliquots of peptoids were added to the well, and fluorescence was recorded as a function of time until there was no further increase in fluorescence. Increases of the permeability of the outer membrane after the addition of peptoids was reflected by increased fluorescence values as a result of NPN incorporation into the membrane. […]

A further series concerns E. coli ML-35 cells. Put plainly: ONPG hydrolysis assay (inner membrane). It is filed as cell-based. The settings on record: 1.5 mM ONPG, 10 mM sodium phosphate pH 7.4, absorbance 405 nm. Here is the method: The permeability of the inner membrane was determined using E. coli ML-35 cells […]
The intact bacterial inner membrane is non-permeable to o-nitrophenyl-β-D-galactopyranoside (OPNG), a chromogenic substrate of the β-galactosidase.
Following damage to the inner membrane, OPNG enters the cells and is metabolized by β-galactosidase creating a chromogenic […]. E. coli cells were washed in 10 mM sodium phosphate (pH 7.4) containing 100 mM NaCl and resuspended in the same buffer at a final concentration of OD600 = 0.5 containing 1.5 mM ONPG. The hydrolysis of ONPG and generation of o-nitrophenol over time were monitored as absorbance change at 405 nm following the addition of peptoids. […]

Setting [5] is: Table S2, broth dilution, MHB2, 37 °C 24 h, max 25 µM.

Protocol for human cells and animals: The antimicrobial, hemolytic, and cytotoxic activities of counter-ion-exchanged peptoids were evaluated (Table S3).

On to KKIRVRLSA [M33-TFA], for which the “toxicity of M33-TFA above that of M33-AcOH” value in the series with human cells and animals is listed as 5-30%.

In the case of `C[C@@H](c1ccccc1)N(CC(N)=O)C(=O)CN(CCCCN)C(=O)CN(C(=O)CN(C(=O)CN(CCCCN)C(=O)CN(C(=O)CN(CCCCN)C(=O)CN(CCCCN)C(=O)CN(C(=O)CN(C(=O)CN(CCCCN)C(=O)CN(C(=O)CNCCc1c[nH]c2ccccc12)[C@@H](C)c1ccccc1)[C@@H](C)c1ccccc1)[C@@H](C)c1ccccc1)[C@@H](C)c1ccccc1)[C@@H](C)c1ccccc1)[C@@H](C)c1ccccc1` [peptoid 63], in [1], the HPLC elution is 49.9 % MeCN. Also, in the series on rat erythrocytes, the “Hmax (100 µM)” value came out at 12.7±0.9%. In the series on rat erythrocytes (pH 7.4), this molecule yielded an HC10 of 85.0 µM and an HC50 of over 100 µM. Further, in series [2], the aqueous solubility entry was “poor aqueous”.

In the case of `C[C@@H](c1ccccc1)N(CC(N)=O)C(=O)CN(CCCCN)C(=O)CN(CCCCN)C(=O)CN(C(=O)CN(C(=O)CN(CCCCN)C(=O)CN(C(=O)CN(C(=O)CN(CCCCN)C(=O)CN(CCc1c[nH]c2ccccc12)C(=O)CN(CCc1c[nH]c2ccccc12)C(=O)CNCCCCN)[C@@H](C)c1ccccc1)[C@@H](C)c1ccccc1)[C@@H](C)c1ccccc1)[C@@H](C)c1ccccc1` [peptoid 32], in series [1] (Table 1, SunFire C18 […] 250 mm, water/ACN + 0.1% TFA, 5% B 2 min then linear to 100% B over 30 min, used as measure of hydrophobicity), the “HPLC elution (%ACN)” value came to 48.4 %ACN. In addition, the “MIC E. coli ATCC25922” value against E. coli ATCC 25922 [3] (setting [5]) turned out to be 6.3 µM (≈ 11.7 µg/mL); in the series on E. coli ATCC 25922 [3] (Table S3, counter-ion exchange series (TFA, HCl, AcOH salts)) it was 6.3 µM. Moreover, the “MIC S. aureus ATCC25923” value in the series on S. aureus ATCC 25923 (setting [5]) came out at 3.1 µM (≈ 5.78 µg/mL); in the series with S. aureus ATCC 25923 (Table S3, counter-ion exchange series), 3.1 µM (≈ 5.78 µg/mL). For the same molecule, in the series on rat erythrocytes, the “Hmax (100 µM)” value is listed as 4.2±1.0%. For the same molecule, the HC10 in the series on rat erythrocytes (pH 7.4) is reported as 77.7 µM; in the series on rat erythrocytes (red cells of rat), over 100 µM. Also, the HC50 in the series with rat erythrocytes (pH 7.4) is listed as over 100 µM. Moreover, the “H max (100 µM)” value in the series on rat erythrocytes (percentage of hemolysis at the highest concentration tested (100 µM), rat erythrocytes) stood at 15.9 ± 1.5%. The “MIC E. faecalis KCTC 3511” value with E. faecalis KCTC 3511 was found to be 6.3 µM (≈ 11.7 µg/mL). Besides, the “MIC S. typhimurium SL 1344” value in the series on S. typhimurium SL 1344 was 6.3 µM (≈ 11.7 µg/mL). Further, the “MIC P. aeruginosa MDR-198” value against P. aeruginosa MDR-198 lay in the range of 6.3 to 12.5 µM. For the same molecule, the “MIC E. coli ESBL 63103” value in the series with E. coli ESBL 63103 lay in the range of 12.5 to 25 µM. The “MIC K. pneumonia ESBL 61962” value in the series on K. pneumonia ESBL 61962 lay in the range of 12.5 to 25 µM. In the series with S. aureus MRSA C623, the “MIC S. aureus MRSA C623” value was in the range of 3.1 to 6.3 µM. The “outer membrane disruption (NPN uptake)” value with E. coli ATCC 25922 [4] is on record as “somewhat lower”. Also, the “inner membrane disruption (ONPG hydrolysis)” value with E. coli ML-35 cells was “lower than that seen with more hydrophobic peptoids”.

Turning to `C[C@@H](c1ccccc1)N(CC(N)=O)C(=O)CN(CCCCN)C(=O)CN(C(=O)CN(C(=O)CN(CCCCN)C(=O)CN(C(=O)CN(C(=O)CN(CCCCN)C(=O)CN(C(=O)CN(CCCCN)C(=O)CN(CCCCN)C(=O)CN(C(=O)CNCCc1c[nH]c2ccccc12)[C@@H](C)c1ccccc1)[C@@H](C)c1ccccc1)[C@@H](C)c1ccccc1)[C@@H](C)c1ccccc1)[C@@H](C)c1ccccc1)[C@@H](C)c1ccccc1` [peptoid 64], the HPLC elution in series [1] is on record as 50.5 % MeCN. The “Hmax (100 µM)” value in the series on rat erythrocytes amounted to 18.9±2.9%. In the series on rat erythrocytes (pH 7.4), this molecule registered an HC10 of 70.7 µM and an HC50 of over 100 µM. Also, the aqueous solubility result in series [2] is “poor aqueous”.
